Measurements: patent publication US20080275081A1, “Novel thrombomodulin expression promoters” (Kowa Company, Ltd., priority 2002, published 2008)

Legend:
[1] = tested on: TM m-RNA expression in HUVECs; test: TM mRNA expression in HUVECs by Northern blot, time course; format: cell-based, human; conditions: 10^-5 M, incubated for the indicated time, FIG. 2
Protocol: HUVECs were plated in HuMedia-EG2 medium (Kurabo Inc.) to which 2% (vol/vol) fetal bovine serum, 50 μg/ml gentamicin, 50 ng/ml amphotericin B, 10 ng/ml hEGF, 5 ng/ml hFGF-B, 1 μg/ml hydrocortisone and 10 μg/ml heparin were added. Subsequently, pitavastatin (at a final concentration of 10^−5 M) was added to the medium, and incubated for the indicated time with 5% CO2 at 37° C. Total RNA was extracted by using TRIZOL reagent (Life Technologies, Inc.) and the levels of TM m-RNA expression were measured by the Northern blot method, which is a usual method.

[2] = tested on: thrombomodulin (TM) antigen in normal human umbilical vein endothelial cells (HUVECs); test: TM antigen level in HUVECs by enzyme immunoassay after 24 h incubation with statin; format: cell-based; conditions: 10^-7 M to 10^-3 M, control (0.01% DMSO) = 100%, FIG. 1
Protocol: Normal human umbilical vein endothelial cells (HUVECs) were plated at a density of 2×10^5 cells/ well in a 24-well plate with HuMedia-EG2 medium (Kurabo Inc.) to which 2% (vol/vol) fetal bovine serum, 50 μg/ml gentamicin, 50 ng/ml amphotericin B, 10 ng/ml hEGF, 5 ng/ml hFGF-B, 1 μg/ml hydrocortisone and 10 μg/ml heparin were added. Subsequently, each test substance (pitavastatin, fluvastatin and pravastatin) was added to the medium at a final concentration of 10^−7 M to 10^−3 M, and incubated for 24 hours with 5% CO2 at 37° C. After the incubation, the cells were washed 3 times with a phosphate buffer solution (pH 7.4), and suspended in 50 mmol/L Tris-HCl (pH 7.4) that contained 0.15 mol/L NaCl, 0.5% Triton X-100 and 1 mmol/L benzamide hydrchloride, then, TM was extracted. The levels of TM antigen were measured by enzyme immunoassay using the monoclonal antibodies TMmAb 2, 11 and 20. In the case where the value of the control (containing an equivalent weight of DMSO (0.01%)) is assigned to 100%, the effects on the TM antigen levels existing in the cellular proteins due to the addition of each test substance were measured.

O=C(O)C[C@H](O)C[C@H](O)/C=C/c1c(C2CC2)nc2ccccc2c1-c1ccc(F)cc1 [pitavastatin, (+)-(3R, 5S, 6E)-7-[2-cyclopropyl-4-(4-fluorophenyl)-3-quinolyl]-3,5-dihydroxy-6-heptenoic acid]
ratio of the TM expression level (TM m-RNA) to the control, time course [1]: increased drastically after 12 hours
ratio of the TM antigen level/cellular protein to the control [2]: significant increase level
